# Paper PMC11396368, “Free Radical Production Induced by Nitroimidazole Compounds Lead to Cell Death in Leishmania infantum Amastigotes” (Molecules, 2024)
# Values joined by “and” are separate entries in the source; they are usually repeats but may differ in a detail not shown here. Equal entries are not always repeated. Where two headings read alike, the source gives them in different places.
# Legend:
# [1] = system: intracellular amastigotes of L donovani; settings: cited from earlier work
# L. infantum TryR = L. infantum TryR (Leishmania infantum, UniProt A4HSF7); experiment: Trypanothione reductase enzymatic assay in parasite protein extracts; type: biochemical; settings: up to 100 μM (thioridazine at 100 μM); T[S]2 0.075 mM, NADPH 0.20 mM
# [2] = system: L. infantum-iRFP axenic amastigotes; experiment: Viability of L. infantum-iRFP axenic amastigotes (infrared fluorescence, 384-well); type: cell-based, Leishmania infantum; settings: for EC50: Leishmania infantum, 72 h incubation, mean ± SD; for concentrations producing a decrease in fluorescence emission: axenic amastigotes, from 24 h until 72 h
# [3] = system: intramacrophage L. infantum-iRFP amastigotes; experiment: Viability of L. infantum-iRFP intramacrophage amastigotes in infected murine splenocytes (infrared fluorescence, 384-well); type: cell-based, Leishmania infantum; settings: for EC50: Leishmania infantum, Splenocyte, 72 h incubation, mean ± SD
# [4] = system: L. infantum-iRFP axenic amastigotes; experiment: ROS production by axenic amastigotes (DCFH-DA, flow cytometry); type: cell-based, Leishmania infantum; settings: 3 h treatment, 0.04 μM fexinidazole, 0.28 μM pretomanid (EC50)
# [5] = Cytotoxicity in HepG2 cells (alamarBlue); settings: human
# [6] = Cytotoxicity in RAW 264.7 cells (alamarBlue); settings: mouse
# [7] = CC50 HepG2 cells / EC50 axenic amastigotes
# [8] = CC50 RAW 264.7 cells / EC50 axenic amastigotes
# [9] = CC50 HepG2 cells / EC50 intramacrophage amastigotes
# [10] = CC50 RAW 264.7 cells / EC50 intramacrophage amastigotes
# Chain of L. infantum TryR (A4HSF7 entry or part of it): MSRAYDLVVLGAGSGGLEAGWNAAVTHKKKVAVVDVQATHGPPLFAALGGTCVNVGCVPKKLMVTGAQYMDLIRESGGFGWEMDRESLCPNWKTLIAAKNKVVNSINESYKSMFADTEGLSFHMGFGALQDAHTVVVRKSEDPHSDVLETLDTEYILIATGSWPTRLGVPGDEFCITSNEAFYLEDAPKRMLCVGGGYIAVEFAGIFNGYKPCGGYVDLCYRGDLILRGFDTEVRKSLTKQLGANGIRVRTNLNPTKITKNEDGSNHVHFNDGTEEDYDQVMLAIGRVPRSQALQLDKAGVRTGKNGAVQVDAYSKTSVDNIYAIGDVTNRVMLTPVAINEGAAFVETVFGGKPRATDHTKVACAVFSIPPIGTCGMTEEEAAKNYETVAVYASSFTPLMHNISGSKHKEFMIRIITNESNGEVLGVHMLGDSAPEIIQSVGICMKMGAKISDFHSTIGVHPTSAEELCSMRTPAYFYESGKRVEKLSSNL
compound,measurement,setting,value
Cn1c([N+](=O)[O-])cnc1COc1ccc([S+](C)[O-])cc1 (stereo not drawn) [sulfoxide],potency against intracellular amastigotes,[1],potency similar to miltefosine
CSc1ccc2c(c1)N(CCC1CCCCN1C)c1ccccc1S2 (stereo not drawn) [thioridazine],inhibitory effect on L. infantum TryR,L. infantum TryR,completely inhibited the enzyme
O=[N+]([O-])c1cn2c(n1)OC[C@@H](OCc1ccc(OC(F)(F)F)cc1)C2 [Pretomanid],SI1 (Selectivity Index),[2]; [7],>714.29
same,SI2 (Selectivity Index),[2]; [8],>714.29
same,EC50,[2],280 ± 20 nM
same,concentrations producing a decrease in fluorescence emission,[2],> 0.5 µM
same,SI1 (Selectivity Index),[3]; [9],>303.03
same,SI2 (Selectivity Index),[3]; [10],>303.03
same,EC50,[3],660 ± 80 nM
same,percentage of the stressed population (+ROS),[4]; 0.01% (v/v) H2O2,39.8%
same,unstressed population (−ROS),[4]; 0.01% (v/v) H2O2,59.9%
same,percentage of the stressed population (+ROS),"[4]; 0.01% (v/v) H2O2, listed as pretomanid",39.8 ± 1.2%
same,inhibitory effect on L. infantum TryR,L. infantum TryR,neither fexinidazole nor pretomanid had any inhibitory effect
same,CC50 at 72 h,[5],> 200000 nM
same,CC50 at 72 h,[6],> 200000 nM
Cn1c([N+](=O)[O-])cnc1COc1ccc(S(C)(=O)=O)cc1 [sulfone],potency against intracellular amastigotes,[1],potency similar to miltefosine
C[C@@H]1[C@H](O)[C@@H](C)/C=C/C=C/C=C/C=C/C=C/C=C/C=C/[C@H](O[C@@H]2O[C@H](C)[C@@H](O)[C@H](N)[C@@H]2O)C[C@@H]2O[C@](O)(C[C@@H](O)C[C@@H](O)[C@H](O)CC[C@@H](O)C[C@@H](O)CC(=O)O[C@H]1C)C[C@H](O)[C@H]2C(=O)O [Amp B],SI1 (Selectivity Index),[2],258.33
same,SI2 (Selectivity Index),[2],24.82
same,EC50,[2],270 ± 20 nM
same,SI1 (Selectivity Index),[3],217.97
same,SI2 (Selectivity Index),[3],20.94
same,EC50,[3],320 ± 20 nM
same,CC50 at 72 h,[5]; HepG2 cells,69800 ± 13700 nM
same,CC50 at 72 h,[6]; RAW 264.7 macrophage cells,6700 ± 670 nM
"CSc1ccc(OCc2ncc([N+](=O)[O-])n2C)cc1 [Fexinidazole, 1-methyl-2-((p-(methylthio)-phenoxy)methyl)-5-nitroimidazole]",SI1 (Selectivity Index),[2]; [7],>5000.00
same,SI2 (Selectivity Index),[2]; [8],>5000.00
same,EC50,[2],40 nM
same,concentrations producing a decrease in fluorescence emission,[2],above 0.125 μM
same,SI1 (Selectivity Index),[3]; [9],>151.52
same,SI2 (Selectivity Index),[3]; [10],>151.52
same,EC50,[3],1320 ± 60 nM
same,percentage of the stressed population (+ROS),[4]; 0.01% (v/v) H2O2,58.4 ± 1.5% and 58.4%
same,unstressed population (−ROS),[4]; 0.01% (v/v) H2O2,41.6%
same,inhibitory effect on L. infantum TryR,L. infantum TryR,neither fexinidazole nor pretomanid had any inhibitory effect
same,potency against intracellular amastigotes,[1],little activity
same,CC50 at 72 h,[5]; HepG2 cells,> 200000 nM
same,CC50 at 72 h,[6]; RAW 264.7 macrophage cells,> 200000 nM
OO [H2O2],percentage of the stressed population (+ROS),[4]; 0.01% (v/v) H2O2,72.2%
same,unstressed population (−ROS),[4]; 0.01% (v/v) H2O2,27.7%
